The text below walks through data of publication PMC12040169 (PLOS Biology, 2025).

In general, viability refers to a read-out of living cells in per cent, often relative to untreated cells.

This series can be described thus: in vitro. Particulars: human, hela cells, % viability.
As for `Cc1ccc2nc(NCc3ccco3)c(/C=N/Cc3ccco3)c(=O)n2c1` [CBK220353], the viability at 28.5 h, 10 µM was found to be 80.4%. Regarding `Cc1ccc(C(=O)Nc2ccccc2C(=O)N2CCN(Cc3ccccc3)CC2)cc1` [CBK263560], the viability at 28.5 h, 10 µM came to 94%. Next, `Cc1nc[nH]c1CN1CCCN(S(=O)(=O)c2ccc(C(F)(F)F)cc2Cl)CC1` [CBK063035]: 112%. Next, `CSc1nc(N)n(-c2cc(C(F)(F)F)cc(C)n2)n1` [CBK005941]: 89.9%; `O=C(NC1CCCCC1)c1s/c(=N/O)nnc1Nc1ccccc1` [CBK022275]: 93.8%. The same measure for `COC(=O)c1sccc1NS(=O)(=O)c1ccc(C(F)(F)F)cc1` [CBK200041]: 95.5%; for `CC(C)NC(=O)NC1CCCc2nc(N3CCC(CO)CC3)ncc21` (stereo not drawn) [CBK307002]: 83.3%.

In the case of `CCc1cccc2c(CC(=O)NC3CCCOC3)c(C)[nH]c12` (stereo not drawn) [CBK282584], the viability at 28.5 h, 10 µM came to 105%. Next, `CC1CCc2nc(NC(=O)Cn3cc(C(=O)Nc4ccc(F)cc4)ccc3=O)sc2C1` (stereo not drawn) [CBK286053]: 100%; `CS(=O)(=O)N(CC(=O)Nc1ccc(S(=O)(=O)N2CCCC2)cc1)c1ccc2c(c1)OCO2` [CBK268995]: 97.7%; `CC(C)Nc1nc(NC(C)C)nc(N(C)C(N)=O)n1` [CBK027732]: 90.2%. The same measure for `CC12CCC(C(=O)Nc3ccccc3)(OC1=O)C2(C)C` (stereo not drawn) [CBK018129]: 96.4%; for `NC(=O)C1(N2CCCCC2)CCN(C(=O)CCCC(=O)O)CC1` [CBK286575]: 84.2%. As for `Cc1nn(C)c(C)c1CCC(=O)NCC1CCN(c2ccccc2F)C1` (stereo not drawn) [CBK304357], the viability at 28.5 h, 10 µM amounted to 96.7%. Next, `Cc1ccc(OCC(=O)NC(=S)Nc2cc(C(=O)O)ccc2C)cc1C` [CBK264955]: 92.8%.

Take `COCCNC(=O)N1CCN(c2ccccc2)CC1` [CBK155181]: the viability at 28.5 h, 10 µM was found to be 96.1%. Next, `CCCNCCc1ccc(NC(=O)Nc2cc(F)cc3c2OCOC3)cc1` [CBK173887T]: 97.8%.

Consider `COc1cncc(-c2cc(Nc3ccc(NS(=O)(=O)c4ccc(C)cc4)cc3)ncn2)c1` [CBK090988], for which the viability at 28.5 h, 10 µM was 94.1%.

Consider `O=C(c1ccc2c(c1)ncn2CCO)N1CCC(c2ccccc2F)C1` (stereo not drawn) [CBK307075], for which the viability at 28.5 h, 10 µM came out at 88.5%.

`CCOC(=O)C(NC(=O)c1c(C)nn(C)c1C)c1cccc(C)c1C` (stereo not drawn) [CBK304253]: the viability at 28.5 h, 10 µM worked out at 98.9%. The same measure for `CCOC(=O)CCNC(=O)C1(c2ccccc2)CCCC1` [CBK149543]: 88.2%; for `Cc1nc2sccn2c1-c1csc(Nc2cccc(C(=O)O)c2)n1` [CBK263291B]: 91.9%. In the case of `OC1(c2cccnc2)CCCC2CN(Cc3cc(F)ccc3F)CC21` (stereo not drawn) [CBK284513], the viability at 28.5 h, 10 µM came to 103%. As to `COC(=O)Cn1c(=O)c2c(nc3oc(C(C)(C)C)cn32)n(C)c1=O` [CBK306029], the viability at 28.5 h, 10 µM is 84.5%. The same measure for `O=C(O)c1cc(S(=O)(=O)Nc2ccc(O)cc2)c(Cl)cc1Cl` [CBK113231]: 86.8%; for `CCS(=O)(=O)N1CCC(C(=O)NC2CC(C)(C)Oc3ccccc32)CC1` (stereo not drawn) [CBK304364]: 90.1%; for `O=C(Cc1cccs1)Nc1cccc(C(=O)Nc2cccc(C(=O)O)c2)c1` [CBK268509]: 105%.

For the compound `Cn1cc(C(=O)NC(Cc2ccsc2)c2nccs2)ccc1=O` (stereo not drawn) [CBK285140], the viability at 28.5 h, 10 µM worked out at 98.5%.

Take `CS(=O)(=O)N1CCN(c2nc(C(F)(F)F)nc3ccsc23)CC1` [CBK304594]: the viability at 28.5 h, 10 µM was 91.1%. The same measure for `Cc1ccc2c(c1)oc(=O)n2CCNC(=O)c1cccs1` [CBK284472]: 99.9%. For the compound `O=C(O)CCCC(=O)Nc1cc([N+](=O)[O-])ccc1O` [CBK265592], the viability at 28.5 h, 10 µM was found to be 102%. In the case of `CN(C)C(=O)CSc1nnc(-c2cccc3ccccc23)n1-c1ccccc1` [CBK266044], the viability at 28.5 h, 10 µM turned out to be 92%.

As for `O=S(=O)(Nc1cccc(-c2nnn[nH]2)c1)c1ccc(Br)s1` [CBK160377], the viability at 28.5 h, 10 µM came to 101%. Next, `Cc1ccc(Cn2ncc3c(N4CCCC4)ncnc32)cc1` [CBK287601]: 72.5%. As for `CCc1c(CC)c(OC(=O)C(N)C(C)C)c2ccccc2c1OC` (stereo not drawn) [CBK016484C], the viability at 28.5 h, 10 µM amounted to 93.4%. The same measure for `Nc1ncnc(Nc2cccc(C(F)(F)F)c2)n1` [CBK017403]: 82.4%; for `Cc1cc(C)n(C(=O)CCNS(=O)(=O)c2ccc(Cl)cc2)n1` [CBK269348]: 111%; for `COc1ccc(CCN(CCc2ccccc2)CC(O)COc2cccc3c2CCCC3)cc1` (stereo not drawn) [CBK024506T]: 82.2%.

As for `O=C(Cn1cnc2c(cnn2-c2ccccc2)c1=O)NCc1ccco1` [CBK287531], the viability at 28.5 h, 10 µM was found to be 101%. Regarding `O=C(Cc1ccc(F)cc1)N1CCOC(Cn2ccnc2)C1` (stereo not drawn) [CBK282875], the viability at 28.5 h, 10 µM turned out to be 91%. Next, `O=C(c1[nH]c2ccccc2c1NS(=O)(=O)/C=C/c1ccccc1)N1CCOCC1` [CBK050068]: 93.1%; `CN(C)C1(c2nnnn2CCOC(=O)Nc2ccc(Cl)cc2)CCCCC1` [CBK266093]: 94.5%; `O=C(Nc1ccccc1)[C@H]1O[C@H](CCN2CCN(c3ccccc3)CC2)CC[C@@H]1O` [CBK288725]: 84.1%. Next, `CN(Cc1ccco1)C(=O)c1cccc(NC(=O)C2CC2)c1` [CBK304857]: 101%; `COC(=O)C1CCCCN1S(=O)(=O)c1cccc2cccnc12` (stereo not drawn) [CBK051244]: 82.2%. As for `Nc1ncc(-c2cccc3cccnc23)nc1N1CCOCC1` [CBK063383], the viability at 28.5 h, 10 µM was found to be 93.2%. Turning to `COc1ccc([C@H]2CN(C(=O)c3ccccc3)[C@@H]3CCN(Cc4ccccc4C)C[C@H]23)cc1` [CBK285583], the viability at 28.5 h, 10 µM was found to be 105%. Next, `O=C(COC(=O)c1ccncc1)c1ccc(OC(=O)c2ccccc2)cc1` [CBK265169]: 87.3%.

In the case of `Cc1cc(C)nc(NS(=O)(=O)c2ccc(OC(F)(F)F)cc2)c1` [CBK044711], the viability at 28.5 h, 10 µM is 90.7%. Next, `C=CCN1CCCC[C@H]2CN(S(=O)(=O)c3cccc(F)c3)C[C@H]21` [CBK285500]: 103%. Next, `O=C(COc1ccc(Cl)cc1Br)NNC(=O)c1ccccc1O` [CBK262943]: 97.8%. The same measure for `CCNC(CO)c1ccccc1` (stereo not drawn) [CBK061785]: 109%. Regarding `CCNC(=O)c1cnc(-c2cccc(C(F)(F)F)c2)c(-c2cccc(CO)c2)c1` [CBK037557], the viability at 28.5 h, 10 µM amounted to 94.7%. In the case of `CSc1[nH]nc(N)c1-c1ccc([N+](=O)[O-])cc1` [CBK016751], the viability at 28.5 h, 10 µM came out at 88%. `CCCCn1cnc2c(c1=O)c1nc3ccccc3nc1n2CCc1ccc(OC)cc1` [CBK269538]: the viability at 28.5 h, 10 µM came out at 85.7%. As for `Fc1cccc(-c2nccnc2NCCc2c[nH]c3ccccc23)c1` [CBK036861], the viability at 28.5 h, 10 µM worked out at 96.7%.

In the case of `NC(=O)C1(N2CCCCC2)CCN(C(=S)Nc2ccc(F)c(Cl)c2)CC1` [CBK267165], the viability at 28.5 h, 10 µM stood at 97.4%.
